# Source: PMC7356157, “Shorter Antibacterial Peptide Having High Selectivity for E. coli Membranes and Low Potential for Inducing Resistance” (Microorganisms, 2020)
# Read-outs that look alike come from different tables or passages of the source. No end group written: not given here.
# Tests used:
# [1] = tested on: E. coli N°44 (clinical isolate); conditions: clinical isolate from blood, ESBL (+), broth microdilution
# Protocol: (§1) The standard broth microdilution method was used for determining the peptides’ MIC [41]. […] Bacteria in Müller–Hinton broth (MHB) were used as negative control. […] The MIC was determined as the lowest peptide concentration at which bacterial growth was not detected.
# (§2) Approximately 50 bacterial samples were then collected from E. coli-infected patients for evaluating activity of the peptides against some clinical isolates. These samples were identified and biochemically and metabolically characterised using the VITEK-2 equipment. Isolates were profiled regarding their resistance or susceptibility to a panel of conventionally used antibiotics.
# [2] = tested on: E. coli N°4 (clinical isolate); conditions: clinical isolate from urine, broth microdilution
# Protocol: as §1, §2
# [3] = tested on: E. coli N°40 (clinical isolate); conditions: clinical isolate from blood, broth microdilution
# Protocol: as §1, §2
# [4] = tested on: E. coli 35218 (ampicillin-resistant ATCC 35218 strain); assay type: cell-based; conditions: broth microdilution
# [5] = tested on: E. coli ATCC 11775; assay: Bactericidal activity (MBC); assay type: cell-based
# Protocol: (§3) Bactericidal activity was evaluated by sowing an aliquot of Luria Bertani agar (LBA) in the wells where no growth had been detected in the MIC assay.
# [6] = tested on: E. coli ML35 43827; assay: Bactericidal activity (MBC); assay type: cell-based
# Protocol: as §3
# [7] = tested on: E. coli ATCC 25922; assay: Bactericidal activity (MBC); assay type: cell-based; conditions: aliquots of no-growth MIC wells on LBA, 18 h, 37 °C; kills 99.9%
# Protocol: as §3
# [8] = tested on: E. coli ATCC 11775; assay type: cell-based; conditions: broth microdilution
# [9] = tested on: E. coli N°44 (clinical isolate); assay type: cell-based
# Protocol: as §3
# (§4) Approximately 50 bacterial samples were then collected from E. coli-infected patients for evaluating activity of the peptides against some clinical isolates. These samples were identified and biochemically and metabolically characterised using the VITEK-2 equipment. Isolates were profiled regarding their resistance or susceptibility to a panel of conventionally used antibiotics. Three E. coli isolates having different resistance profiles were then selected following such characterisation (Appendix A): • Isolate 4 (from urine): extended spectrum beta-lactamase (ESBL) (-), resistant to ampicillin, quinolones and co-trimoxazole. • Isolate 40 (from blood): ESBL (-), resistant to ampicillin, 1st-generation cephalosporins and co-trimoxazole. • Isolate 44 (from blood): ESBL (+), resistant to aminoglycosides, quinolones, β-lactams (including 1st-, 3rd- and 4th-generation cephalosporins).
# [10] = tested on: E. coli N°40 (clinical isolate); assay type: cell-based
# Protocol: as §3, §4
# [11] = tested on: E. coli ATCC 25922; assay type: cell-based
# [12] = tested on: E. coli ML35 43827; assay type: cell-based; conditions: broth microdilution
# [13] = tested on: E. coli 25922; assay: Antibacterial activity in the presence of human sera; assay type: cell-based; conditions: peptide diluted in fresh human sera (100%), then inoculum in MHB ~5 × 10^5 CFU/mL, 18 h, 37 °C
# Protocol: The second assay involved peptide dilution in fresh human sera (100%) pre-incubated for 6 h at 37 °C in a humid chamber before putting them in contact with the bacterial inoculum diluted in MHB (~5 × 10^5 CFU/mL). The assay was incubated and read as mentioned in the microdilution section.
# [14] = tested on: human red blood cells (hRBC); assay: Haemolytic activity (MHC); assay type: cell-based; conditions: 5% v/v hRBC in 1X PBS, 200–0.39 µM, 1 h, 37 °C, absorbance 560 nm
# Protocol: A haemolytic activity assay was used for determining whether peptides acted on hRBC membrane by calculating the minimum haemolytic concentration (MHC). Briefly, 100 µL serial dilutions of peptides were incubated in a 96-well plate with an equal volume of a fresh hRBC suspension at 5% v/v in 1X PBS (200–0.39 µM final peptide concentrations). The samples were spun at 1000× g for 5 min after having been incubated at 37 °C for 1 h and a Multiskan spectrometer (Thermo Fisher) was used for measuring 100 µL supernatant absorbance at 560 nm. Treated hRBC absorbance 0.1% Triton X-100 or 100% haemolysis was used as positive control.
# [15] = tested on: E. coli
# Protocol: (§5) The checkerboard method was used for evaluating peptide antibacterial activity in combination with antibiotics [43]. […] Absorbance was measured at 620 nm and individual peptide and antibiotic MIC and combined MIC were obtained. […] The fractional inhibitory concentration index (FICI) was then calculated as the sum of peptide FIC + antibiotic FIC. A ≤ 0.5 FICI indicated synergy, 0.5 to ≤4 FICI indifference, and >4 FICI antagonism [45].
# (§6) The results were interpreted by taking the lowest checkerboard FIC index (previously reported method 3) [44].
# [16] = tested on: E. coli 35218; assay type: cell-based
# Protocol: as §3
# [17] = tested on: E. coli; remark: listed apart in the source
# Protocol: as §5, §6
# [18] = tested on: P. aeruginosa 27853; assay: MIC by broth microdilution; assay type: cell-based; conditions: MHB, 18 h, 37 °C
substance,measurement,setting,value
KKMKKALQYIKLLK-NH2 [Peptide 35409-13],MIC E. coli N°44,[1],25 µM
same,MIC E. coli N°4,[2],>100 µM
same,MIC E. coli N°40,[3],50 µM
same,MIC E. coli 35218,[4],25 µM
same,MBC E. coli 11775,[5],> 100 µM
same,MBC E. coli ML35 43827,[6],50 µM
same,MBC E. coli 25922,[7],50 µM
same,MIC E. coli 11775,[8],100 µM
same,MBC E. coli N°44,[9],50 µM
same,MBC E. coli N°40,[10],100 µM
same,MIC E. coli 25922,"[11]; broth microdilution, MHB, ~5 × 10^5 CFU/mL, 18 h, 37 °C, OD 620 nm, 100 to 0.2 µM",50 µM
same,"MIC against E. coli 25922, MHB",[11]; no serum,50 µM
same,MIC E. coli ML35 43827,[12],25 µM
same,"MIC against E. coli 25922, Serum (without Pre-Incubation)",[13],50 µM
same,MHC (minimum haemolytic concentration),[14],>200 µM
same,FIC Index,"[15]; peptide + gentamicin, lowest checkerboard FIC index (method 3)",0.75
same,FIC P (peptide),[15]; with gentamicin,0.25
same,MBC E. coli 35218,[16],100 µM
same,FIC Index,"[17]; peptide + ciprofloxacin, lowest checkerboard FIC index (method 3)",3
same,FIC P (peptide),[17]; with ciprofloxacin,1
same,MIC P. aeruginosa 27853,[18],>100 µM
